Test systems include CCRF-CEM leukemia; SF-539 CNS; OVCAR-8 ovarian; NCI-H522 lung; UACC-257 melanoma; MALME-3M melanoma; RXF 393 renal; NCI-H460 lung.
Test in all cases: NCI tumour cell line growth inhibition, 48 h

The results in this text go back to PubChem BioAssay (NCI).

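Exposure lasted 48 hours, with cells grown in 96-well plates and compounds tested at five concentrations. The concentration for 50% growth inhibition is given as GI50. TGI denotes the concentration required for complete inhibition of growth.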

For `COc1ccc(/C(C#N)=C/c2ccccc2OC)cc1`, the GI50 in the assay on CCRF-CEM leukemia is 3.34 µM; with SF-539 CNS it was 20.5 µM; in the assay with OVCAR-8 ovarian, 25.2 µM; with NCI-H522 lung it was 4.85 µM; with UACC-257 melanoma it was 12.4 µM; in the assay on MALME-3M melanoma, 17.1 µM. The GI50 in the assay on RXF 393 renal was 5.4 µM; with NCI-H460 lung, 5.89 µM. The TGI with CCRF-CEM leukemia was 30.3 µM; in the assay with SF-539 CNS, more than 100 µM; with OVCAR-8 ovarian it was more than 100 µM; with NCI-H522 lung, 32.3 µM; in the assay with UACC-257 melanoma it was more than 100 µM; in the assay with MALME-3M melanoma, more than 100 µM. The TGI is 27.4 µM in the assay with RXF 393 renal and more than 100 µM in the assay on NCI-H460 lung.

Regarding `O=C1c2cccnc2C(=O)c2nc3cc(N4CCN(C5CC5)CC4)ccc3nc21`, the GI50 is 2.56 µM in the assay on CCRF-CEM leukemia; 0.442 µM in the assay on SF-539 CNS; 1.68 µM with OVCAR-8 ovarian; 0.238 µM in the assay on NCI-H522 lung; 0.479 µM with UACC-257 melanoma; 0.178 µM in the assay on MALME-3M melanoma. The GI50 is 0.607 µM in the assay with RXF 393 renal and 0.137 µM in the assay on NCI-H460 lung. Besides, the TGI with CCRF-CEM leukemia stood at 9.83 µM; in the assay with SF-539 CNS, 1.66 µM; in the assay on OVCAR-8 ovarian it was 11.2 µM; in the assay on NCI-H522 lung, 1.36 µM; in the assay with UACC-257 melanoma, 1.98 µM; with MALME-3M melanoma it was 0.457 µM. The results for the TGI in the assay with RXF 393 renal and with NCI-H460 lung were 2.61 µM and 0.352 µM, respectively.

`C=CCOc1cccc(/C=C2\SC(=Nc3ccc(O)cc3)NC2=O)c1`: the GI50 with CCRF-CEM leukemia was 0.402 µM; with SF-539 CNS it was 0.296 µM; with OVCAR-8 ovarian, 0.813 µM; with NCI-H522 lung, 0.406 µM; with UACC-257 melanoma, 9.11 µM; with MALME-3M melanoma, 2.48 µM. The GI50 in the assay on RXF 393 renal is 0.302 µM; in the assay on NCI-H460 lung, 0.389 µM. Moreover, the TGI is more than 100 µM in the assay on CCRF-CEM leukemia; 1.14 µM with SF-539 CNS; 14 µM in the assay on OVCAR-8 ovarian; 2.98 µM in the assay with NCI-H522 lung; more than 100 µM in the assay on UACC-257 melanoma; 21.9 µM in the assay with MALME-3M melanoma. The TGI in the assay with RXF 393 renal was 3.77 µM; in the assay on NCI-H460 lung, 5.2 µM.

Take `COc1ccc(-c2c3c(N)nc(-c4ccncc4)nc3nc3c2c(C)nn3-c2ccccc2)cc1`: the GI50 in the assay on CCRF-CEM leukemia was 5.93 µM; with SF-539 CNS, 1.93 µM; in the assay with OVCAR-8 ovarian it was 7.11 µM; in the assay on NCI-H522 lung it was 4.94 µM; with UACC-257 melanoma, 79.9 µM; with MALME-3M melanoma, 14.5 µM. Further, the GI50 is 2.72 µM with RXF 393 renal and 3.3 µM with NCI-H460 lung. In addition, the TGI was more than 100 µM with CCRF-CEM leukemia; 4.97 µM in the assay with SF-539 CNS; more than 100 µM with OVCAR-8 ovarian; 53.5 µM with NCI-H522 lung; more than 100 µM in the assay on UACC-257 melanoma; more than 100 µM in the assay with MALME-3M melanoma. Besides, the TGI with RXF 393 renal was 20.6 µM; in the assay on NCI-H460 lung, more than 100 µM.

On to `COc1ccc(OC)c(/C=C2\SC(=S)NC2=O)c1`, for which the GI50 is 42.4 µM with CCRF-CEM leukemia; 17.4 µM in the assay with SF-539 CNS; 30.5 µM in the assay with OVCAR-8 ovarian; 31.4 µM with NCI-H522 lung; 19.8 µM in the assay on UACC-257 melanoma; 34.6 µM with MALME-3M melanoma. The GI50 with RXF 393 renal is 18.4 µM; in the assay with NCI-H460 lung, 32.6 µM. Moreover, the TGI is more than 100 µM in the assay on CCRF-CEM leukemia; 49.6 µM in the assay on SF-539 CNS; more than 100 µM with OVCAR-8 ovarian; more than 100 µM with NCI-H522 lung; 61.5 µM with UACC-257 melanoma; 92.8 µM with MALME-3M melanoma. Further, the TGI in the assay with RXF 393 renal was 64.8 µM; in the assay with NCI-H460 lung, more than 100 µM.

Turning to `COc1cccc(-n2ncc3c(N/N=C/c4ccc(C(=O)NCCN(C)C)cc4)ncnc32)c1`, the GI50 is 4.17 µM with CCRF-CEM leukemia; 3.78 µM with SF-539 CNS; 4.19 µM in the assay with OVCAR-8 ovarian; 2.04 µM in the assay on NCI-H522 lung; 3.72 µM in the assay on UACC-257 melanoma; 3.43 µM in the assay on MALME-3M melanoma. The GI50 was 0.496 µM in the assay on RXF 393 renal and 3.23 µM in the assay on NCI-H460 lung. Further, the TGI in the assay with CCRF-CEM leukemia amounted to 11.2 µM; with SF-539 CNS it was 7.79 µM; in the assay on OVCAR-8 ovarian it was 9.27 µM; with NCI-H522 lung, 5.96 µM; in the assay on UACC-257 melanoma it was 7.44 µM; in the assay on MALME-3M melanoma, 7.81 µM. The results for the TGI in the assay with RXF 393 renal and in the assay on NCI-H460 lung were 3.53 µM and 7.24 µM, respectively.

Regarding `Cn1cccc1-c1cc(-c2cccs2)nc(N)c1C#N`, the GI50 in the assay with CCRF-CEM leukemia, in the assay on SF-539 CNS, with OVCAR-8 ovarian, in the assay on NCI-H522 lung, in the assay on UACC-257 melanoma and in the assay with MALME-3M melanoma was more than 100 µM in each case. In addition, the GI50 in the assay with RXF 393 renal and with NCI-H460 lung was more than 100 µM each time. For the same compound, the TGI with CCRF-CEM leukemia, in the assay on SF-539 CNS, with OVCAR-8 ovarian, with NCI-H522 lung, in the assay with UACC-257 melanoma and in the assay on MALME-3M melanoma was more than 100 µM in each case. In addition, the TGI in the assay with RXF 393 renal and with NCI-H460 lung was more than 100 µM each time.

`CCCC(C)c1cc(Cc2cc(Cl)cc(Cl)c2O)c(O)c(Cc2cc(Cl)cc(Cl)c2O)c1` (stereo not drawn): the GI50 in the assay on CCRF-CEM leukemia was 0.432 µM; in the assay with SF-539 CNS it was 1.09 µM; in the assay on OVCAR-8 ovarian it was 0.737 µM; with NCI-H522 lung it was 0.4 µM; in the assay with UACC-257 melanoma, 1.84 µM; in the assay on MALME-3M melanoma, 1.77 µM. Besides, the GI50 with RXF 393 renal was 1.34 µM; with NCI-H460 lung, 1.02 µM. The TGI in the assay on CCRF-CEM leukemia stood at 3.74 µM; in the assay on SF-539 CNS, 7.28 µM; with OVCAR-8 ovarian, 14.6 µM; with NCI-H522 lung it was 6.6 µM; in the assay on UACC-257 melanoma, 6.1 µM; in the assay on MALME-3M melanoma, 6.75 µM. For the same compound, the TGI in the assay on RXF 393 renal was found to be 8.27 µM; in the assay on NCI-H460 lung it was 9.34 µM.

In the case of `CC1OC(O[C@@H]2OC=C(C=O)[C@@]3(O)CC[C@H](C)[C@@H]23)C(O)C(O)C1O` (stereo partly drawn), the TGI in the assay on CCRF-CEM leukemia, in the assay on SF-539 CNS, in the assay with OVCAR-8 ovarian, with NCI-H522 lung, with UACC-257 melanoma and in the assay with MALME-3M melanoma was more than 100 µM in each case. Also, the TGI with RXF 393 renal and with NCI-H460 lung was more than 100 µM each time.

Consider `N#Cc1c(N2CCCC2)[nH]c(=O)c(C(c2c(Cl)cccc2Cl)c2c(O)c(C#N)c(N3CCCC3)[nH]c2=O)c1O`, for which the GI50 in the assay on CCRF-CEM leukemia is 1.91 µM; with SF-539 CNS it was 0.369 µM; with OVCAR-8 ovarian it was 15.8 µM; with NCI-H522 lung, 9.74 µM; in the assay on UACC-257 melanoma it was 12.4 µM; with MALME-3M melanoma, 19.3 µM. Moreover, the GI50 is 2.69 µM in the assay with RXF 393 renal and 18.2 µM in the assay on NCI-H460 lung. For the same compound, the TGI in the assay on CCRF-CEM leukemia was determined as 5.06 µM; with SF-539 CNS it was 10.9 µM; in the assay on OVCAR-8 ovarian, 33.1 µM; in the assay on NCI-H522 lung, 35.1 µM; in the assay on UACC-257 melanoma, 26.7 µM; with MALME-3M melanoma, 36.4 µM. The TGI with RXF 393 renal worked out at 15.4 µM; in the assay with NCI-H460 lung it was 38.4 µM.

In the case of `Cc1ccc(N=Nc2c(O)c(C(=O)O)cc3ccccc23)cc1C`, the TGI with CCRF-CEM leukemia, with SF-539 CNS, with OVCAR-8 ovarian, in the assay on NCI-H522 lung, with UACC-257 melanoma and with MALME-3M melanoma was more than 100 µM each time. The TGI with RXF 393 renal and in the assay with NCI-H460 lung was more than 100 µM throughout.

Regarding `COC(=O)[C@@]1(C)CC[C@]2(C)CC[C@]3(C)C4=CC=C5C(=CC(=O)C(O)=C5C)[C@]4(C)[C@@H](O)C[C@@]3(C)[C@@H]2C1`, the GI50 in the assay with CCRF-CEM leukemia was 2.73 µM; in the assay on SF-539 CNS it was 15.7 µM; with OVCAR-8 ovarian it was 14.8 µM; in the assay on NCI-H522 lung it was 8.39 µM; with UACC-257 melanoma it was 10.1 µM; in the assay with MALME-3M melanoma, 4.91 µM. The values for the GI50 in the assay with RXF 393 renal and with NCI-H460 lung were 11.3 µM and 13.4 µM, respectively. Also, the TGI is 11.9 µM in the assay with CCRF-CEM leukemia; 28.8 µM in the assay on SF-539 CNS; 28.4 µM with OVCAR-8 ovarian; 20 µM in the assay on NCI-H522 lung; 24.3 µM with UACC-257 melanoma; 16.2 µM in the assay on MALME-3M melanoma. The TGI is 22.9 µM in the assay on RXF 393 renal and 25.5 µM in the assay on NCI-H460 lung.

Take `CC(C)c1cc(-c2n[nH]c(=O)n2-c2ccc3c(ccn3C)c2)c(O)cc1O`: the GI50 with CCRF-CEM leukemia is less than 0.0174 µM; with SF-539 CNS, less than 0.0279 µM; in the assay on OVCAR-8 ovarian, less than 0.0232 µM; in the assay with NCI-H522 lung, less than 0.0205 µM; in the assay on UACC-257 melanoma it was less than 0.0195 µM; with MALME-3M melanoma, less than 0.0167 µM. For the same compound, the GI50 in the assay with RXF 393 renal was less than 0.0304 µM; with NCI-H460 lung it was less than 0.0157 µM. Further, the TGI was more than 40.5 µM in the assay with CCRF-CEM leukemia; 21.8 µM in the assay with SF-539 CNS; more than 83.7 µM in the assay on OVCAR-8 ovarian; 17.1 µM in the assay with NCI-H522 lung; 30.6 µM with UACC-257 melanoma; less than 0.031 µM with MALME-3M melanoma. For the same compound, the TGI with RXF 393 renal was determined as 21.5 µM; in the assay with NCI-H460 lung it was 13.9 µM.

Regarding `NCCn1c(=O)[nH]c(=O)[nH]c1=S`, the GI50 in the assay with CCRF-CEM leukemia, with SF-539 CNS, with OVCAR-8 ovarian, with NCI-H522 lung, in the assay with UACC-257 melanoma and in the assay with MALME-3M melanoma was more than 100 µM in each case. Also, the values for the GI50 in the assay with RXF 393 renal and in the assay with NCI-H460 lung were more than 100 µM and 39.2 µM, respectively. For the same compound, the TGI in the assay with CCRF-CEM leukemia, in the assay with SF-539 CNS, in the assay with OVCAR-8 ovarian, in the assay with NCI-H522 lung, with UACC-257 melanoma and in the assay on MALME-3M melanoma was more than 100 µM throughout. Moreover, the TGI in the assay with RXF 393 renal and in the assay on NCI-H460 lung was more than 100 µM in each case.
